Data: patent US20230108906A1, “SUBSTITUTED BICYCLIC AND TRICYCLIC UREAS AND AMIDES, ANALOGUES THEREOF, AND METHODS USING SAME” (Arbutus Biopharma Corporation, priority 2019, published 2023)

System: HBV rcDNA in HepDE19 cells
Test: HepDE19 assay with bDNA quantitation of HBV rcDNA
Type: cell-based, hepatitis B virus (HBV)
Conditions: Hepatitis B virus, HepDE19, 168 h, inhibition of rcDNA formation in HepDE19 cells (HepG2 derived), Tet-free medium, 7 day incubation, Quantigene 2.0 bDNA readout, top concentration 25 μM; read-out: DE-19bDNA EC50
How it was run: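 HepDE19 cells (HepG2-derived, Tet-regulated HBV) switched to Tet-free medium, then treated 7 days at 37 °C with compound, 8-point titration from 25 μM, 0.5% DMSO. rcDNA quantified by bDNA with HBV probes; EC50/EC90 via 4-parameter fit. Viability (CC50) by CellTiter-Glo ATP on 5,000 cells/well after 4 days.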

**Q.** For `CN(C(=O)Nc1cc(F)cc(Cl)c1)C1COCc2[nH]c(=O)c3ccccc3c21` (stereo not shown) [Compound 29, 3-(3-Chloro-5-fluorophenyl)-1-methyl-1-(6-oxo-1,4,5,6-tetrahydro-2H-pyrano[3,4-c]isoquinolin-1-yl)urea], which EC50 is on record?
**A.** The EC50 was 120 nM.

**Q.** For `CN(C(=O)Nc1ccc(F)c(Cl)c1)C1CCCc2[nH]c(=O)c3c(F)c(F)ccc3c21` (stereo not shown) [Compound 28, 3-(3-Chloro-4-fluorophenyl)-1-(7,8-difluoro-6-oxo-1,2,3,4,5,6-hexahydrophenanthridin-1-yl)-1-methylurea], which EC50 is on record?
**A.** Its EC50 is 440 nM.

**Q.** `CN(C(=O)Nc1ccc(Cl)c(Cl)c1)[C@@H]1COCc2[nH]c(=O)c3cc(F)c(F)cc3c21` [Compound 143, (S)-3-(3,4-Dichlorophenyl)-1-(8,9-difluoro-6-oxo-1,4,5,6-tetrahydro-2H-pyrano[3,4-c]isoquinolin-1-yl)-1-methylurea] was tested. Which EC50 did it give?
**A.** Its EC50 is 20 nM.

**Q.** `CN(C(=O)Nc1ccc(F)c(Cl)c1)C1C[S+]([O-])Cc2[nH]c(=O)c3cc(F)ccc3c21` (stereo not shown) [Compound 193, 3-(3-Chloro-4-fluorophenyl)-1-(8-fluoro-3-oxido-6-oxo-1,4,5,6-tetrahydro-2H-thiopyrano[3,4-c]isoquinolin-1-yl)-1-methylurea] was tested. Which EC50 did it give?
**A.** Its EC50 is 4400 nM.

**Q.** With `CN(C(=O)Nc1ccc(F)c(C(F)F)c1)C1COCc2[nH]c(=O)c3cc(F)ccc3c21` (stereo not shown) [Compound 124, 3-(3-(Difluoromethyl)-4-fluorophenyl)-1-(8-fluoro-6-oxo-1,4,5,6-tetrahydro-2H-pyrano[3,4-c]isoquinolin-1-yl)-1-methylurea] as the compound, how does the EC50 read?
**A.** Its EC50 is 10 nM.

**Q.** `CN(C(=O)NC1(C(F)(F)F)CC1)C1CCCc2[nH]c(=O)c3cc(F)c(F)cc3c21` (stereo not shown) [Compound 144, 1-(8,9-Difluoro-6-oxo-1,2,3,4,5,6-hexahydrophenanthridin-1-yl)-1-methyl-3-(1-(trifluoromethyl)cyclopropyl)urea] was tested. Which EC50 did it give?
**A.** The EC50 was 20000 nM.

**Q.** Which EC50 does the source give for `O=C(Nc1ccc(F)c(Cl)c1)N(CCCO)C1CCCc2[nH]c(=O)c3cc(F)ccc3c21` (stereo not shown) [Compound 11, 3-(3-Chloro-4-fluorophenyl)-1-(8-fluoro-6-oxo-1,2,3,4,5,6-hexahydrophenanthridin-1-yl)-1-(3-hydroxypropyl)urea] here?
**A.** Its EC50 is 60 nM.

**Q.** Which EC50 does the source give for `CCN(C(=O)Nc1ccc(F)c(Cl)c1)C1COCc2[nH]c(=O)c3cc(F)c(F)cc3c21` (racemic) [Compound 45, 3-(3-Chloro-4-fluorophenyl)-1-(8,9-difluoro-6-oxo-1,4,5,6-tetrahydro-2H-pyrano[3,4-c]isoquinolin-1-yl)-1-ethylurea] here?
**A.** The EC50 was 10 nM.

**Q.** Which EC50 does the source give for `O=C(Nc1ccc(F)c(Cl)c1)N(CCCO)C1CCc2[nH]c(=O)c3ccccc3c21` (stereo not shown) [Compound 14, 3-(3-Chloro-4-fluorophenyl)-1-(3-hydroxypropyl)-1-(5-oxo-2,3,4,5-tetrahydro-1H-cyclopenta[c]isoquinolin-1-yl)urea] here?
**A.** The EC50 was 100 nM.

**Q.** How did the EC50 turn out when `CN(C(=O)Nc1ccc(F)c(Cl)c1)C1CS(=O)(=O)Cc2[nH]c(=O)c3cc(F)ccc3c21` (single isomer, unassigned) [Compound 197, 3-(3-Chloro-4-fluorophenyl)-1-(8-fluoro-3,3-dioxido-6-oxo-1,4,5,6-tetrahydro-2H-thiopyrano[3,4-c]isoquinolin-1-yl)-1-methylurea] was run?
**A.** Its EC50 is 2300 nM.

**Q.** `CN(C(=O)Nc1ccc(F)c(Cl)c1)C1CCCCc2[nH]c(=O)c3ccccc3c21` (stereo not shown) [Compound 21, 3-(3-Chloro-4-fluorophenyl)-1-methyl-1-(5-oxo-6,7,8,9,10,11-hexahydro-5H-cyclohepta[c]isoquinolin-11-yl)urea] was tested. Which EC50 did it give?
**A.** The EC50 was 150 nM.

Same assay, conditions: inhibition of rcDNA formation in HepDE19 cells (HepG2 derived), Tet-free medium, 7 day incubation, Quantigene 2.0 bDNA readout, top concentration 25 μM; read-out: DE-19bDNA EC50

**Q.** With `CN(C(=O)Nc1ccc(F)c(C#N)c1)C1CSCc2[nH]c(=O)c3cc(F)c(F)cc3c21` (single isomer, unassigned) [Compound 189, 3-(3-Cyano-4-fluorophenyl)-1-(8,9-difluoro-6-oxo-1,4,5,6-tetrahydro-2H-thiopyrano[3,4-c]isoquinolin-1-yl)-1-methylurea] as the compound, how does the EC50 read?
**A.** Its EC50 is 880 nM.

**Q.** Which EC50 does the source give for `CN(C(=O)Nc1ccc(F)c(C#N)c1)C1C[S+]([O-])Cc2[nH]c(=O)c3cc(F)c(F)cc3c21` (single isomer, unassigned) [Compound 212, 3-(3-Cyano-4-fluorophenyl)-1-(8,9-difluoro-3-oxido-6-oxo-1,4,5,6-tetrahydro-2H-thiopyrano[3,4-c]isoquinolin-1-yl)-1-methylurea] here?
**A.** The EC50 was no less than 25000 nM.

**Q.** `CC(C)(O)CN(C(=O)Nc1ccc(F)c(Cl)c1)C1COCc2[nH]c(=O)c3cc(F)ccc3c21` (single isomer, unassigned) [Compound 111, 3-(3-Chloro-4-fluorophenyl)-1-(8-fluoro-6-oxo-1,4,5,6-tetrahydro-2H-pyrano[3,4-c]isoquinolin-1-yl)-1-(2-hydroxy-2-methylpropyl)urea] was tested. Which EC50 did it give?
**A.** The EC50 was 200 nM.

**Q.** `CC(=O)N1Cc2[nH]c(=O)c3cc(F)ccc3c2C(N(C)C(=O)Nc2ccc(F)c(C#N)c2)C1` (single isomer, unassigned) [Compound 166, 1-(3-Acetyl-8-fluoro-6-oxo-1,2,3,4,5,6-hexahydrobenzo[c][1,7]naphthyridin-1-yl)-3-(3-cyano-4-fluorophenyl)-1-methylurea] was tested. Which EC50 did it give?
**A.** Its EC50 is 11000 nM.

**Q.** `CNc1nc2c(c3cc(F)c(F)cc13)C(N(C)C(=O)Nc1ccc(F)c(C(F)F)c1)COC2` (single isomer, unassigned) [Compound 236, 1-(8,9-Difluoro-6-(methylamino)-1,4-dihydro-2H-pyrano[3,4-c]isoquinolin-1-yl)-3-(3-(difluoromethyl)-4-fluorophenyl)-1-methylurea] was tested. Which EC50 did it give?
**A.** Its EC50 is 10 nM.

**Q.** How did the EC50 turn out when `CN1Cc2[nH]c(=O)c3cc(F)c(F)cc3c2C(N(C)C(=O)Nc2ccc(F)c(Cl)c2)C1` (single isomer, unassigned) [Compound 167, 3-(3-Chloro-4-fluorophenyl)-1-(8,9-difluoro-3-methyl-6-oxo-1,2,3,4,5,6-hexahydrobenzo[c][1,7]naphthyridin-1-yl)-1-methylurea] was run?
**A.** Its EC50 is 7600 nM.

**Q.** How did the EC50 turn out when `CN(C(=O)Nc1ccc(F)c(Cl)c1)C1CSCc2[nH]c(=O)c3cc(F)ccc3c21` (single isomer, unassigned) [Compound 184, 3-(3-Chloro-4-fluorophenyl)-1-(8-fluoro-6-oxo-1,4,5,6-tetrahydro-2H-thiopyrano[3,4-c]isoquinoIin-1-yl)-1-methylurea] was run?
**A.** Its EC50 is 30 nM.

**Q.** With `CN(C(=O)Nc1ccc(F)c(F)c1)C1COCc2[nH]c(=O)c3c(c21)CCOC3` (single isomer, unassigned) [Compound 93, 3-(3,4-Difluorophenyl)-1-methyl-1-(6-oxo-1,2,4,5,6,7,9,10-octahydrodipyrano[3,4-b:4′,3′-d]pyridin-1-yl)urea] as the compound, how does the EC50 read?
**A.** Its EC50 is no less than 25000 nM.

**Q.** How did the EC50 turn out when `CN(C(=O)Nc1ccc(F)c(C#N)c1)C1CN(CCO)Cc2[nH]c(=O)c3cc(F)ccc3c21` (single isomer, unassigned) [Compound 172, 3-(3-Cyano-4-fluorophenyl)-1-(8-fluoro-3-(2-hydroxyethyl)-6-oxo-1,2,3,4,5,6-hexahydrobenzo[c][1,7]naphthyridin-1-yl)-1-methylurea] was run?
**A.** The EC50 was 10000 nM.

**Q.** For `CC(=O)N1Cc2[nH]c(=O)c3cc(F)c(F)cc3c2C(N(C)C(=O)Nc2ccc(F)c(C#N)c2)C1` (single isomer, unassigned) [Compound 177, 1-(3-Acetyl-8,9-difluoro-6-oxo-1,2,3,4,5,6-hexahydrobenzo[c][1,7]naphthyridin-1-yl)-3-(3-cyano-4-fluorophenyl)-1-methylurea], which EC50 is on record?
**A.** The EC50 was no less than 25000 nM.

**Q.** How did the EC50 turn out when `CC(=O)N1Cc2[nH]c(=O)c3cc(F)c(F)cc3c2C(N(C)C(=O)Nc2ccc(F)c(C#N)c2)C1` (single isomer, unassigned) [Compound 178, 1-(3-Acetyl-8,9-difluoro-6-oxo-1,2,3,4,5,6-hexahydrobenzo[c][1,7]naphthyridin-1-yl)-3-(3-cyano-4-fluorophenyl)-1-methylurea] was run?
**A.** The EC50 was 11000 nM.

**Q.** With `CN(C(=O)Nc1ccc(F)c(C#N)c1)C1CN(CCO)Cc2[nH]c(=O)c3cc(F)c(F)cc3c21` (single isomer, unassigned) [Compound 182, 3-(3-Cyano-4-fluorophenyl)-1-(8,9-difluoro-3-(2-hydroxyethyl)-6-oxo-1,2,3,4,5,6-hexahydrobenzo[c][1,7]naphthyridin-1-yl)-1-methylurea] as the compound, how does the EC50 read?
**A.** The EC50 was 4900 nM.

**Q.** With `CN(C(=O)Nc1ccc(F)c(C(F)F)c1)C1CNCc2[nH]c(=O)c3cc(F)c(F)cc3c21` (single isomer, unassigned) [Compound 216, 1-(8,9-Difluoro-6-oxo-1,2,3,4,5,6-hexahydrobenzo[c][1,7]naphthyridin-1-yl)-3-(3-(difluoromethyl)-4-fluorophenyl)-1-methylurea] as the compound, how does the EC50 read?
**A.** The EC50 was 3500 nM.

**Q.** Which EC50 does the source give for `CN(C(=O)Nc1ccc(F)c(Cl)c1)C1CNCc2[nH]c(=O)c3cc(F)ccc3c21` (single isomer, unassigned) [Compound 153, 3-(3-Chloro-4-fluorophenyl)-1-(8-fluoro-6-oxo-1,2,3,4,5,6-hexahydrobenzo[c][1,7]naphthyridin-1-yl)-1-methylurea] here?
**A.** Its EC50 is 730 nM.

**Q.** Which EC50 does the source give for `CC(=O)N1Cc2[nH]c(=O)c3cc(F)c(F)cc3c2C(N(C)C(=O)Nc2ccc(F)c(Cl)c2)C1` (single isomer, unassigned) [Compound 160, 1-(3-Acetyl-8,9-difluoro-6-oxo-1,2,3,4,5,6-hexahydrobenzo[c][1,7]naphthyridin-1-yl)-3-(3-chloro-4-fluorophenyl)-1-methylurea] here?
**A.** Its EC50 is 820 nM.

**Q.** For `CN(C(=O)Nc1ccc(F)c(Cl)c1)C1CS(=O)(=O)Cc2[nH]c(=O)c3cc(F)ccc3c21` (single isomer, unassigned) [Compound 198, 3-(3-Chloro-4-fluorophenyl)-1-(8-fluoro-3,3-dioxido-6-oxo-1,4,5,6-tetrahydro-2H-thiopyrano[3,4-c]isoquinolin-1-yl)-1-methylurea], which EC50 is on record?
**A.** Its EC50 is 3700 nM.

**Q.** With `CN(C(=O)N1Cc2ccccc2C1)C1CNCc2[nH]c(=O)c3cc(F)c(F)cc3c21` (single isomer, unassigned) [Compound 222, N-(8,9-Difluoro-6-oxo-1,2,3,4,5,6-hexahydrobenzo[c][1,7]naphthyridin-1-yl)-N-methylisoindoline-2-carboxamide] as the compound, how does the EC50 read?
**A.** Its EC50 is no less than 25000 nM.
